The conditions of this data set: Crystal; DTA.

Numbers after ± are expanded uncertainties.

As for `CC(=O)[C@@]12O[C@@H]1C[C@H]1[C@@H]3CCC4=CC(=O)CC[C@]4(C)[C@H]3CC[C@@]12C` [16α,17-epoxypregn-4-ene-3,20-dione], the Normal melting temperature worked out at 205.50 ± 1.1 °C.

The record behind these values is the NIST ThermoML archive (doi:10.1021/je050195w).
